Data from the supplement of paper PMC8976852.
± gives the standard deviation of the averaged measurements.

Columns and labels:
Experiment in all cases: activity (1 - area under the dose-response curve within the screened range) (fraction); higher = more sensitive
Details in all cases: treatment time: 72 h
[1] = test system: HCM-SANG-0270-C20 (colorectal cancer organoid)
Description: (§1)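 Patient-derived cancer organoids (colorectal and oesophageal, HCM-SANG models) were grown for up to 6 months in 5% or 80% ECM (BME-2), then seeded in 384-well plates on an ECM layer and treated with 72 compounds for 3 days. Each compound used a 7-point half-log dilution series spanning a 1000-fold range, in technical triplicate and biological duplicate. Dose-response curves were fitted with a non-linear mixed effects model; fits with RMSE > 0.3 were removed, and activity = 1 - AUC within the screened dose range (0 = no activity, 1 = maximum).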

[2] = test system: HCM-SANG-0291-C15 (oesophageal cancer organoid)
Description: as §1

[3] = test system: HCM-SANG-0266-C20 (colorectal cancer organoid)
Description: as §1

[4] = test system: HCM-SANG-0532-C20 (colorectal cancer organoid)
Description: as §1

[5] = ECM percentage in culture prior to screening 5 %
[6] = ECM percentage in culture prior to screening 80 %

Row | SMILES | activity [1, 5] | activity [1, 6] | activity [2, 5] | activity [2, 6] | activity [3, 5] | activity [3, 6] | activity [4, 5] | activity [4, 6]
1 | COc1cc2c(Nc3ccc(NC(=O)c4ccccc4)cc3)ncnc2cc1OCCCN1CCOCC1 | 0.102 ± 0.054 | 0.106 ± 0.06 | 0.0708 ± 0.031 | 0.0657 ± 0.034 | 0.228 ± 0.027 | 0.212 ± 0.038 | 0.184 ± 0.07 | 0.166 ± 0.022
2 | CC[C@@]1(O)C(=O)OCc2c1cc1n(c2=O)Cc2cc3ccccc3nc2-1 [Camptothecin] | 0.133 ± 0.028 | 0.0946 ± 0.022 | 0.262 ± 0.021 | 0.258 ± 0.022 | 0.169 ± 0.031 | 0.147 ± 0.071 | 0.106 ± 0.034 | 0.156 ± 0.023
3 | CS(=O)(=O)CCNCc1ccc(-c2ccc3ncnc(Nc4ccc(OCc5cccc(F)c5)c(Cl)c4)c3c2)o1 [Lapatinib] | 0.157 ± 0.057 | 0.106 ± 0.073 | 0.207 ± 0.045 | 0.189 ± 0.022 | 0.21 ± 0.071 | 0.132 ± 0.082 | 0.143 ± 0.069 | 0.205 ± 0.052
4 | Cn1ncc(Cl)c1-c1cc(C(=O)N[C@H](CN)Cc2ccc(F)c(F)c2)oc1Cl [Uprosertib] | 0.0769 ± 0.057 | 0.0584 ± 0.038 | 0.0195 ± 0.0032 | 0.0257 ± 0.018 | 0.218 ± 0.089 | 0.183 ± 0.08 | 0.177 ± 0.14 | 0.159 ± 0.027
5 | CC(=O)O[C@@]12CO[C@@H]1C[C@H](O)[C@@]1(C)C(=O)[C@H](O)C3=C(C)[C@@H](OC(=O)[C@H](O)[C@@H](NC(=O)OC(C)(C)C)c4ccccc4)C[C@@](O)([C@@H](OC(=O)c4ccccc4)[C@H]21)C3(C)C [Docetaxel] | 0.0873 ± 0.042 | 0.14 ± 0.08 | 0.161 ± 0.058 | 0.188 ± 0.05 | 0.237 ± 0.033 | 0.19 ± 0.031 | 0.128 ± 0.028 | 0.158 ± 0.017
6 | N.N.[Cl][Pt][Cl] [Cisplatin] | 0.0701 ± 0.024 | 0.0677 ± 0.021 | 0.132 ± 0.023 | 0.151 ± 0.025 | 0.0675 ± 0.021 | 0.08 ± 0.081 | 0.0676 ± 0.035 | 0.0959 ± 0.02
7 | COc1cccc2cc(-c3nc([C@H]4CC[C@H](C(=O)O)CC4)n4ncnc(N)c34)[nH]c12 [OSI-027] | 0.0587 ± 0.034 | 0.0504 ± 0.036 | 0.0395 ± 0.012 | 0.032 ± 0.014 | 0.141 ± 0.054 | 0.0937 ± 0.059 | 0.0577 ± 0.024 | 0.0906 ± 0.013
8 | CC1(C)CCC(CN2CCN(c3ccc(C(=O)NS(=O)(=O)c4ccc(NCC5CCOCC5)c([N+](=O)[O-])c4)c(Oc4cnc5[nH]ccc5c4)c3)CC2)=C(c2ccc(Cl)cc2)C1 [Venetoclax] | 0.0303 ± 0.0092 | 0.0357 ± 0.029 | 0.0236 ± 0.007 | 0.0311 ± 0.022 | 0.0407 ± 0.02 | 0.0384 ± 0.018 | 0.0233 ± 0.0047 | 0.0331 ± 0.0083
9 | COCC1(CO)C(=O)C2CCN1CC2 (stereo not drawn) [PRIMA-1MET] | 0.0251 ± 0.01 | 0.0283 ± 0.0083 | 0.0344 ± 0.019 | 0.0328 ± 0.011 | 0.0344 ± 0.016 | 0.0318 ± 0.016 | 0.074 ± 0.023 | 0.0388 ± 0.016
10 | Cc1cn(-c2cc(NC(=O)c3ccc(C)c(Nc4nccc(-c5cccnc5)n4)c3)cc(C(F)(F)F)c2)cn1 [Nilotinib] | 0.0302 ± 0.0098 | 0.0451 ± 0.018 | 0.0659 ± 0.035 | 0.0726 ± 0.03 | 0.0558 ± 0.029 | 0.0445 ± 0.025 | 0.111 ± 0.036 | 0.104 ± 0.021
11 | CC/C(=C(\c1ccccc1)c1ccc(OCCN(C)C)cc1)c1ccccc1 [Tamoxifen] | 0.0375 ± 0.013 | 0.0425 ± 0.025 | 0.0279 ± 0.013 | 0.0235 ± 0.0053 | 0.0883 ± 0.053 | 0.0314 ± 0.011 | 0.0364 ± 0.025 | 0.0524 ± 0.021
12 | CC(C)C[C@H](NC(=O)[C@H](Cc1ccccc1)NC(=O)c1cnccn1)B(O)O [Bortezomib] | 0.16 ± 0.023 | 0.167 ± 0.03 | 0.208 ± 0.027 | 0.234 ± 0.034 | 0.201 ± 0.023 | 0.228 ± 0.015 | 0.201 ± 0.028 | 0.212 ± 0.031
13 | NC(=O)Nc1cc(-c2cccc(F)c2)sc1C(=O)N[C@H]1CCCNC1 [AZD7762] | 0.23 ± 0.049 | 0.199 ± 0.05 | 0.269 ± 0.016 | 0.248 ± 0.043 | 0.287 ± 0.041 | 0.232 ± 0.029 | 0.14 ± 0.056 | 0.177 ± 0.035
14 | Cc1nc(Nc2ncc(C(=O)Nc3c(C)cccc3Cl)s2)cc(N2CCN(CCO)CC2)n1 [Dasatinib] | 0.0518 ± 0.018 | 0.045 ± 0.018 | 0.0426 ± 0.021 | 0.0463 ± 0.017 | 0.129 ± 0.069 | 0.0743 ± 0.054 | 0.0937 ± 0.048 | 0.0525 ± 0.021
15 | N#CC[C@H](C1CCCC1)n1cc(-c2ncnc3[nH]ccc23)cn1 [Ruxolitinib] | 0.0225 ± 0.0051 | 0.0229 ± 0.007 | 0.0206 ± 0.0044 | 0.0196 ± 0.0023 | 0.0203 ± 0.00098 | 0.03 ± 0.01 | 0.0295 ± 0.011 | 0.0236 ± 0.0026
16 | Cc1cc(-c2ncc(CC(=O)Nc3ccc(-c4cnccn4)cn3)cc2C)ccn1 [LGK974] | 0.0409 ± 0.013 | 0.0485 ± 0.035 | 0.0263 ± 0.0099 | 0.0251 ± 0.0087 | 0.0334 ± 0.014 | 0.0329 ± 0.017 | 0.0269 ± 0.005 | 0.0397 ± 0.009
17 | CNC(=O)CN1CCC(Oc2cc3c(Nc4cccc(Cl)c4F)ncnc3cc2OC)CC1 [Sapitinib] | 0.236 ± 0.12 | 0.139 ± 0.12 | 0.207 ± 0.076 | 0.159 ± 0.025 | 0.255 ± 0.081 | 0.121 ± 0.1 | 0.119 ± 0.038 | 0.179 ± 0.043
18 | CCNC(=O)c1noc(-c2cc(C(C)C)c(O)cc2O)c1-c1ccc(CN2CCOCC2)cc1 [Luminespib] | 0.111 ± 0.061 | 0.0622 ± 0.041 | 0.0294 ± 0.011 | 0.0466 ± 0.038 | 0.319 ± 0.046 | 0.322 ± 0.024 | 0.338 ± 0.087 | 0.291 ± 0.014
19 | C=CCn1c(=O)c2cnc(Nc3ccc(N4CCN(C)CC4)cc3)nc2n1-c1cccc(C(C)(C)O)n1 [MK-1775] | 0.255 ± 0.042 | 0.205 ± 0.11 | 0.257 ± 0.036 | 0.24 ± 0.051 | 0.407 ± 0.048 | 0.348 ± 0.044 | 0.156 ± 0.019 | 0.19 ± 0.027
20 | CC(=O)O[C@H]1C(=O)[C@@]2(C)[C@H]([C@H](OC(=O)c3ccccc3)[C@]3(O)C[C@H](OC(=O)[C@H](O)[C@@H](NC(=O)c4ccccc4)c4ccccc4)C(C)=C1C3(C)C)[C@]1(OC(C)=O)CO[C@@H]1C[C@@H]2O [Paclitaxel] | 0.223 ± 0.051 | 0.218 ± 0.084 | 0.246 ± 0.044 | 0.27 ± 0.066 | 0.331 ± 0.06 | 0.317 ± 0.067 | 0.138 ± 0.058 | 0.256 ± 0.031
21 | Cn1ncnc1[C@H]1c2n[nH]c(=O)c3cc(F)cc(c23)N[C@@H]1c1ccc(F)cc1 [Talazoparib] | 0.0426 ± 0.031 | 0.0374 ± 0.026 | 0.249 ± 0.036 | 0.275 ± 0.045 | 0.0908 ± 0.022 | 0.0937 ± 0.043 | 0.0688 ± 0.05 | 0.0443 ± 0.014
